US12485105B2, “Composition for suppressing obesity” (DAICEL CORPORATION, priority 2019, dated 2025)

What was measured:
[1] = system: C57BL/6 male mice; experiment: Body weight and adipose tissue fat weights of mice fed normal or high-fat diet with 8PN for 8 weeks; type: in vivo; details: for increase in the fat weight of the subcutaneous adipose tissue: vs Group 4, FIG. 2; for increase in the fat weight of the brown adipose tissue: vs Group 4, FIG. 3; for increase in the fat weight of the mesenteric adipose tissue: vs Group 4, FIG. 4; for increase in the fat weight of the perirenal adipose tissue: vs Group 4, FIG. 5; for increase in the fat weight of the epididymal adipose tissue: vs Group 4, FIG. 6; for increase in the fat weight of the white adipose tissue: vs Group 4, total of adipose tissue other than brown, FIG. 7
Description: (§1) C57BL/6 male mice (available from Japan SLC, Inc.) were arranged into the following six groups of six mice each. Note that, 8-prenylnaringenin (may be described herein as 8PN) was used as the prenylflavonoid of the present embodiment. • (Group 1) Group that ingested a normal diet without the addition of 8PN • (Group 2) Group that ingested a normal diet with the addition of 8PN (final concentration: 0.0005%) • (Group 3) Group that ingested a normal diet with the addition of 8PN (final concentration: 0.005%) • (Group 4) Group that ingested a high-fat diet without the addition of 8PN • (Group 5) Group that ingested a high-fat diet with the addition of 8PN (final concentration: 0.0005%) • (Group 6) Group that ingested a high-fat diet with the addition of 8PN addition (final concentration: 0.005%)
(§2) AIN-93M feed was used as the normal diet (control diet), and AIN-93M feed containing 30% lard was used as the high-fat diet. These feeds were mixed with 8PN for Group 2, Group 3, Group 5 and Group 6.
(§3) The mice were each raised in individual cages, were allowed to freely consume each feed and deionized water, and were raised for 8 weeks. The rearing environment included a temperature of 22±2° C., humidity without artificial control, and light-dark cycles alternated every 12 hours. After 8 weeks, the mice were slaughtered by drawing blood from the heart under co-anesthesia of sevoflurane and somnopentyl, after which each mouse was weighed to measure the body weight. Next, subcutaneous adipose tissue, brown adipose tissue, mesenteric adipose tissue, perirenal adipose tissue, and epididymal adipose tissue were extracted from each mouse, and the fat weight in each tissue was measured by weighing with a scale. The total weight of adipose tissue other than the brown adipose tissue was calculated as the weight of white adipose tissue from the extracted fat.

[2] = reported, Patent Document 2; cited from earlier work
[3] = target: T1, pig-derived pancreatic lipase II (Sus scrofa, UniProt P00591); experiment: Pancreatic lipase activity inhibition (triolein substrate, free fatty acids by NEFA C-Test); type: biochemical; details: 8PN final concentration 1.0, 2.0, 4.0, 7.0 or 10.0 mg/mL; 37° C., 30 minutes; FIG. 12
T1 construct: purchased Sigma
T1 sequence (P00591 1-450): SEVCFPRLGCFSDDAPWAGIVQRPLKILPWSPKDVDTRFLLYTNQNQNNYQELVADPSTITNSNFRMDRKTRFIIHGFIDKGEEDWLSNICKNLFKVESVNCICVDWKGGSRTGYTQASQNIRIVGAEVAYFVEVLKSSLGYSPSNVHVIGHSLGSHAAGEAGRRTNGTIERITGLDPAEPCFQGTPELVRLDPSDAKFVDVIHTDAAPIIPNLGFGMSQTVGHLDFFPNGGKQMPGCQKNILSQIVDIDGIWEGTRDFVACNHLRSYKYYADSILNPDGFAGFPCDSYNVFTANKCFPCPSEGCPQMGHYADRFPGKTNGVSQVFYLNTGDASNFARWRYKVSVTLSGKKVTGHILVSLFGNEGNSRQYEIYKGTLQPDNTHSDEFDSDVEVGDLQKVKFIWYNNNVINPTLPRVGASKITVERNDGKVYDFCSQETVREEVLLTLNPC
Protocol: An enzyme solution was prepared by dissolving pig-derived pancreatic lipase II (available from Sigma) in a 100 mM Tris-HCl buffer solution (pH 7.0) to make a final concentration of 250 μg/mL. In addition, 80 mg of triolein, 10 mg of lecithin, and 5 mg of sodium cholate were dissolved in 9 mL of a 100 mM tris-HCl buffer solution (pH 7.0), and the mixture was subjected to ultrasonic treatment for 10 minutes to prepare a substrate solution that was a homogeneous suspension. […] The reaction was stopped by a heating treatment at 100° C. for 2 minutes, and the amount of free fatty acids was measured through absorbance at a wavelength of 550 nm using the NEFA C-Test Wako Kit (available from Fujifilm Wako Pure Chemical Corporation). […]
Also note that a control was prepared in the same manner as described above with the exception that DMSO was used instead of 8PN. […] The lipase activity inhibition rate was calculated by the following calculation equation (1). Lipase activity inhibition rate (%)={1−((B−A)/(C−A))}×100 (1) • A: Absorbance of blank • B: Absorbance of test reaction solution • C: Absorbance of control

[4] = reported, Non-Patent Document 1; cited from earlier work
[5] = system: C57BL/6 male mice; experiment: Thigh muscle weight of mice fed normal or high-fat diet with 8PN; type: in vivo; details: 8 weeks, p<0.05, FIG. 11
Description: as §1, §2, §3
Example 3 was implemented in the same manner as Example 1 up to the slaughtering of the mice. At the time of the slaughtering, the thigh muscles were removed from each mouse, and the weight of each muscle was measured by weighing with a scale.

[6] = system: C57BL/6 male mice; experiment: Plasma glucose, cholesterol and insulin of mice fed high-fat diet with 8PN; type: in vivo; details: 8 weeks; for increase in the blood concentration of glucose: vs Group 4, FIG. 8; for increase in the blood concentration of cholesterol: vs Group 4, FIG. 9; for increase in the blood concentration of insulin: vs Group 4, FIG. 10
Description: as §1, §2, §3
Example 2 was carried out in the same manner as Example 1 up to the slaughtering of the mice. Blood was drawn from each mouse at the time of slaughtering and was centrifuged at 5000 rpm for 10 minutes, and plasma was obtained from the supernatant. The amount of glucose was measured using the Glucose CII Test Wako Kit (available from Fujifilm Wako Pure Chemical Corporation), and the amount of insulin was measured using the LBIS (trade name) Mouse Insulin ELISA Kit (RTU) (available from Fujifilm Wako Pure Chemical Corporation). In addition, the amount of cholesterol was measured using the LabAssay Cholesterol Kit (available from Fujifilm Wako Pure Chemical Corporation).

[7] = reported, Patent Document 1; cited from earlier work
[8] = system: 3T3-L1 cells; details: reported, Non-Patent Document 2; cited from earlier work
[9] = system: SREBP; details: in rats; reported, Non-Patent Document 4; cited from earlier work
[10] = system: rats; details: administration to rats; reported, Non-Patent Document 3; cited from earlier work
[11] = Group 5: high-fat diet with 8PN 0.0005%
[12] = Group 6: high-fat diet with 8PN 0.005%

In the case of CC(C)=CCc1c(O)cc(O)c2c1O[C@H](c1ccc(O)cc1)CC2=O [8PN, 8-prenylnaringenin], the “increase in body weight” value ([1]; Group 5: high-fat diet with 8PN 0.0005%, vs Group 4 (high-fat diet without 8PN), FIG. 1) was “suppressed”, the “increase in the fat weight of the subcutaneous adipose tissue” value [1, 11] was “suppressed” and the “increase in the fat weight of the brown adipose tissue” value [1, 11] was “suppressed”. The “increase in the fat weight of the mesenteric adipose tissue” value [1, 11] was “suppressed”, the “increase in the fat weight of the perirenal adipose tissue” value [1, 11] was “suppressed” and the “increase in the fat weight of the epididymal adipose tissue” value [1, 11] was “suppressed”. The “increase in the fat weight of the white adipose tissue” value [1, 11] was “suppressed”, the “increase in body weight” value ([1]; Group 6: high-fat diet with 8PN 0.005%, vs Group 4, FIG. 1) was “suppressed” and the “increase in the fat weight of the subcutaneous adipose tissue” value [1, 12] was “suppressed”. The “increase in the fat weight of the brown adipose tissue” value [1, 12] was “suppressed”, the “increase in the fat weight of the mesenteric adipose tissue” value [1, 12] was “suppressed” and the “increase in the fat weight of the perirenal adipose tissue” value [1, 12] was “suppressed”. The “increase in the fat weight of the epididymal adipose tissue” value [1, 12] was “suppressed”, the “increase in the fat weight of the white adipose tissue” value [1, 12] was “suppressed” and the “suppression of muscle disuse atrophy” value [2] was “exhibits”. The “lipase activity inhibition rate” value [3] was “increased in a manner dependent on the concentration of 8PN”, the estrogen activity [4] was “exhibits” and the “weight of the thigh muscle” value ([5]; Group 2: normal diet with 8PN 0.0005%, vs Group 1 (normal diet without 8PN)) was “increased”. The “weight of the thigh muscle” value ([5]; Group 3: normal diet with 8PN 0.005%, vs Group 1) was “increased”, the “weight of the thigh muscle” value ([5]; Group 5: high-fat diet with 8PN 0.0005%, vs Group 4) was “increased” and the “weight of the thigh muscle” value ([5]; Group 6: high-fat diet with 8PN 0.005%, vs Group 4) was “increased”. The “increase in the blood concentration of glucose” value [6, 11] was “suppressed”, the “increase in the blood concentration of cholesterol” value [6, 11] was “suppressed” and the “increase in the blood concentration of insulin” value [6, 11] was “suppressed”. For the same compound, the “increase in the blood concentration of glucose” value [6, 12] was “suppressed”, the “increase in the blood concentration of cholesterol” value [6, 12] was “suppressed” and the “increase in the blood concentration of insulin” value [6, 12] was “suppressed”. The angiogenesis inhibition [7] was “exhibits”.
For COc1cc(O)c(CC=C(C)C)c(O)c1C(=O)/C=C/c1ccc(O)cc1 [xanthohumol], the “differentiation of 3T3-L1 cells” value [8] is given as “has an effect of suppressing”, the lipid synthesis [8] is given as “an effect of suppressing” and the “SREBP activation and lipid synthesis” value [9] is given as “suppresses”. The weight gain [10] was “suppressed”.
